# Results: patent publication US12262990B2, “Methods and materials for prolonged sweat stimulation” (priority 2016, dated 2025)
# Tests used:
# [1] = biological target: acetylcholinesterase (AChE) (Homo sapiens, UniProt P22303); details: in words; cited from earlier work
# Muscarinic receptor = details: class symbols, key not given; cited from earlier work
# Nicotinic receptor = details: class symbols, key not given; cited from earlier work
# skin of Persons A and B [2] = assay: Example 1: iontophoretic sweat stimulation on two persons, followed by skin impedance; type: in vivo, human; details: for duration of sweat stimulation from a single dose: about 40 mC/cm^2, estimated 0.142 mg, skin impedance
# Method: (§1) Sweat was stimulated on two persons (A and B) using for each person a current of 0.5 mA and a charge of 75 mC applied over a total stimulated area of 1.9 cm^2 for a time of 150 seconds. Thus, the total charge density was 75 mC/1.9 cm^2 or about 40 mC/cm^2, and the estimated dose of carbachol delivered to the skin was 0.142 mg. The charge density and stimulant dose estimates may vary based on other ionic impurities that are also dosed (e.g., sodium dosed could decrease the amount of carbachol dosed). The effect of the dosed ionic impurities can be estimated or quantified in any given case by analytical chemistry techniques. […] The stimulated area was divided among two circular test sites that were approximately 1 inch apart. Skin impedance was measured using a Gamry Potentiostat using 2 kHz and 1 V peak to peak sinewave. The electrical resistance results are plotted in FIGS. 2A-2D and 3A-3D for Persons A and B, respectively (the data has been separated into four charts for each person for the sake of clarity). The baseline plots were measured at a control site (i.e., non-stimulated skin) positioned within 1 inch of the stimulation site.
# skin of 8 subjects = assay: Example 2: iontophoretic sweat stimulation on 8 subjects, gravimetric sweat rate; type: in vivo, human
# Description: On 8 subjects, sweat was stimulated utilizing carbachol four times as detailed in Table 4 and one additional time utilizing pilocarpine. The stimulated area was divided among two circular test sites with areas of 0.88 cm^2 that were approximately 1 inch apart, which provides a total stimulation area of 1.76 cm^2. The carbachol doses in Table 4 are shown as percentages of the applied charge density compared to the charge density of pilocarpine applied by the commercial Wescor Nanoduct product, which is a charge density of 42 mC/cm^2. The pilocarpine was dosed over 150 seconds using a current of 0.28 mA/cm^2 and a charge density of 42 mC/cm^2, which delivered approximately 90.65 μg/cm^2.
# Sweat rate was determined by a gravimetric test. Filter papers were weighed, placed on stimulated and control sites for 10 minutes under a specially designed acrylic holder that prevented any wicking of sweat from neighboring areas and prevented evaporation. The papers were immediately weighed again, and then sweat generation rates were calculated. The results from the gravimetric testing are plotted in FIGS. 4-6. Additionally, three subjects received three consecutive doses of 12.5% carbachol once the sweat rate had fallen below 1 nL/min/gland. The results from the repeated stimulation testing of subjects 1-3 are plotted in FIGS. 7A-7C, respectively.
# skin of Persons A and B [3] = assay: Example 1: sweat rates by visual and gravimetric (filter paper) testing; type: in vivo, human; details: for Sweat Generation Rate: single dose about 40 mC/cm^2
# Method: as §1
# Sweat rates in nL/min/gland were also quantified using visual testing and gravimetric testing. Results from Person B are shown in FIG. 4 for a skin site of about 1 cm^2 of skin at 25 hours after stimulation. Approximately 130 active glands were counted per cm^2. Filter papers were weighed, placed on stimulated and control sites for 10 minutes under a plastic wrap to prevent evaporation, and immediately weighed again, and then sweat generation rates were calculated. […] The data for the stimulated sites 1 and 2 (paper measurements taken from each of the two stimulation areas) is shown in Table 2.
# skin = details: cited from earlier work
# acetylcholinesterase (AChE), sequence (P22303 32-614, species assumed): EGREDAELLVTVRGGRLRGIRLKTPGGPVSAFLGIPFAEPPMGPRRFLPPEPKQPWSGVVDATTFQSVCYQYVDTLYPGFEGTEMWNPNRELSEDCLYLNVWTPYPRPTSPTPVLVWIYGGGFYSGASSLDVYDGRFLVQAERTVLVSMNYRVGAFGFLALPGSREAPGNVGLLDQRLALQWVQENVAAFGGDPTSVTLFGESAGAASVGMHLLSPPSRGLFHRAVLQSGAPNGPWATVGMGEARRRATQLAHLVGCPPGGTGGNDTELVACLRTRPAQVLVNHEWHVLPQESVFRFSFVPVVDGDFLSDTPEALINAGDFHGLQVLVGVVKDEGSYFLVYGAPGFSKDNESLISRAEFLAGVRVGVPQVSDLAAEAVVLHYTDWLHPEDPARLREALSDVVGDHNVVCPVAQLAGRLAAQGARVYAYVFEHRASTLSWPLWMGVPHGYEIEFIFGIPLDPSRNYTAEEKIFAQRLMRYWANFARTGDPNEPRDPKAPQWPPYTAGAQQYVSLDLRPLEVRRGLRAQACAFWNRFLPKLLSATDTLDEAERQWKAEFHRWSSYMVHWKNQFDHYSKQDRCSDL
smiles,measurement,setting,value
CC(=O)OCC[N+](C)(C)C [Acetylcholine],metabolism by acetylcholinesterase (AChE),[1],rapidly metabolized
C[N+](C)(C)CCOC(N)=O [Carbachol],metabolism by acetylcholinesterase (AChE),[1],metabolized much more slowly
same,Receptor Activity Muscarinic,Muscarinic receptor,strong
same,Receptor Activity Nicotinic,Nicotinic receptor,strong
same,duration of sweat stimulation from a single dose,skin of Persons A and B [2]; Person A,at least 31 hours
same,duration of sweat stimulation from a single dose,skin of Persons A and B [2]; both Persons A and B,at least 24 hours
same,duration of sweat generation,skin of Persons A and B [2]; lower charge densities than about 40 mC/cm^2,24 h
same,duration of stimulated sweating response of greater than 0.1 nL/min/gland,"skin of 8 subjects; 5 out of 8 subjects, single 12.5% dose (5.25 mC/cm^2)",greater than 8 hours
same,"sustained sweating following a single iontophoretic dose, compared with pilocarpine","skin of 8 subjects; 8 subjects, in words",much longer than commonly observed for pilocarpine
same,duration of sweating responses,skin of 8 subjects; four of the 8 subjects,greater than 24 hours
same,duration of sweating at greater than 1 nL/min/gland,"skin of 8 subjects; half of the subjects, single 100% dose (42 mC/cm^2)",greater than 24 hours
same,duration of sweating at greater than 1 nL/min/gland,"skin of 8 subjects; subjects e, g, h, 100% dosage (42 mC/cm^2)",greater than 7 hours
same,duration of sweating responses,skin of 8 subjects; three of the 8 subjects,greater than 48 hours
same,sweat rate,"skin of Persons A and B [3]; 40 mC/cm^2 charge density, for 24 hours",greater than 1 nL/min/gland
same,active glands counted,"skin of Persons A and B [3]; Person B, skin site of about 1 cm^2, 25 hours after stimulation",Approximately 130 per cm^2
same,Sweat Generation Rate,"skin of Persons A and B [3]; Subject A, Site 1, 4 hours after stimulation",6.4 nl/min/gland
same,Sweat Generation Rate,"skin of Persons A and B [3]; Subject A, Site 1, 23 hours after stimulation",3.3 nl/min/gland
same,Sweat Generation Rate,"skin of Persons A and B [3]; Subject A, Site 2, 4 hours after stimulation",4.6 nl/min/gland
same,Sweat Generation Rate,"skin of Persons A and B [3]; Subject A, Site 2, 23 hours after stimulation",3.1 nl/min/gland
same,Sweat Generation Rate,"skin of Persons A and B [3]; Subject B, Site 1, 5 hours after stimulation",8.3 nl/min/gland
same,Sweat Generation Rate,"skin of Persons A and B [3]; Subject B, Site 1, 23 hours after stimulation",0.3 nl/min/gland
same,Sweat Generation Rate,"skin of Persons A and B [3]; Subject B, Site 2, 5 hours after stimulation",9.4 nl/min/gland
same,Sweat Generation Rate,"skin of Persons A and B [3]; Subject B, Site 2, 23 hours after stimulation",2.7 nl/min/gland
same,stimulated sweat amount,skin of Persons A and B [3]; charge density of less than 40 mC/cm^2,"greater than 1,400 nL/gland/dose"
same,average sweat rates observed,"skin of Persons A and B [3]; for 24 hours, half the dose",greater than 2 nL/min/gland
CC(=O)OC(C)C[N+](C)(C)C (stereo not shown) [Methacholine],metabolism by acetylcholinesterase (AChE),[1],metabolized much more slowly
CC[C@@H]1C(=O)OC[C@@H]1Cc1cncn1C [Pilocarpine],average sweat rate,"skin; charge density of 40 mC/cm^2, for 90 minutes",1-4 nL/min/gland
same,duration of sweat response,"skin; charge density of 40 mC/cm^2, on average",90 min
